# Measurements as given in patent US20250215029A1 (Recludix Pharma, Inc., priority 2022, published 2025).
# Target: T1, pY641-STAT6 in PBMC (Homo sapiens, UniProt P42226)
# T1 construct: Cryopreserved Peripheral Blood Mononuclear Cells (PBMC) are from AllCells; host or cells: cryopreserved PBMC
# T1 sequence (P42226 1-847): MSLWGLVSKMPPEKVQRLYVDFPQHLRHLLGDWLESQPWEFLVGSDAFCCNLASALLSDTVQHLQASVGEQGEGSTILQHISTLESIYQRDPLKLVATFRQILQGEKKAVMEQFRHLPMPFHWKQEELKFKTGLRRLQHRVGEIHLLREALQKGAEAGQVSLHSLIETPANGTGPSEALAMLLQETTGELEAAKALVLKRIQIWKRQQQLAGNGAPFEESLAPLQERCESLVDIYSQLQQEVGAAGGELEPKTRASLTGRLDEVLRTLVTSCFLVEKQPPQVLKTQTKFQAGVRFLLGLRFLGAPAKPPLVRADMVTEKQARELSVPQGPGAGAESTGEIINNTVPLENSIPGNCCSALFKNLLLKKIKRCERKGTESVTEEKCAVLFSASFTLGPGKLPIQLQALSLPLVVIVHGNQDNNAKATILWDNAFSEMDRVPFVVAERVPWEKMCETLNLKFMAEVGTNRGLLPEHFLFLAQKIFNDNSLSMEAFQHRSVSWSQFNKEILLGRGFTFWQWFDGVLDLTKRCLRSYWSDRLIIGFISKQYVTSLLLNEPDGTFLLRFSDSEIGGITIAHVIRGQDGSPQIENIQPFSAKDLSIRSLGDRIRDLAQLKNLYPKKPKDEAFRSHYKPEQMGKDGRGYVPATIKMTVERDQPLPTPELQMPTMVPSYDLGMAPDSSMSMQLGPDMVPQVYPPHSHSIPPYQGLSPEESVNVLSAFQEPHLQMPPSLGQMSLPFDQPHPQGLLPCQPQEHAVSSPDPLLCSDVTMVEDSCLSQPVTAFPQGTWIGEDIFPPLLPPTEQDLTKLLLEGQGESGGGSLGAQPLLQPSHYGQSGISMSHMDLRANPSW
# Test: MSD-pSTAT-PBMC Assay (pSTAT6, IL-4 stimulated)
# Type: cell-based
# Settings: PBMC, compound 3 hrs, then 1 ng/mL IL-4 for 10 min; Table 115; read-out: STAT6
# From the text: Cryopreserved Peripheral Blood Mononuclear Cells (PBMC) are from AllCells. Recombinant Human IL-4 and IL-6 are from Peprotech. Mouse monoclonal anti-STAT3 antibody, rabbit monoclonal anti-pY705-STAT3 antibody, rabbit monoclonal Anti-pY641-STAT6 antibody, and lysis buffer are from Cell Signaling Technology (CST). Mouse monoclonal anti-STAT6 antibody is from BioLegend. Assay plates, blocker, and anti-rabbit secondary antibody are from Meso Scale Discovery (MSD).
# Cyropreserved PBMCs were thawed out and allowed to recover overnight in IMDM+10% heat-inactivated FBS prior to plating 50,000 (STAT3) or 25,000 (STAT6) cells per well in 96-well U-bottom tissue culture plates. Cells were treated with compound for 3 hrs, then stimulated with 10 ng/mL IL-6 (STAT3) or 1 ng/mL IL-4 (STAT6) for 10 min. Cells were then spun down and washed with ice-cold PBS prior to lysing the cell pellet with 1× lysis buffer (CST) with 1× HALT protease and phosphatase inhibitor cocktail (Thermo). Lysates were transferred to and incubated overnight at 4° C. with shaking in QuickPlex 96-well high bind assay plates (MSD) pre-coated overnight with 30 μL per well of 0.6 μg/mL mouse monoclonal anti-STAT3 antibody (STAT3) or 2 μg/mL mouse monoclonal anti-STAT6 antibody (STAT6) in 1× PBS, and pre-blocked for 1 hour with 3% Blocker-A (MSD). Captured protein in the assay plates were then washed and probed with 25 μL per well of […] rabbit monoclonal anti-pY705-STAT3 antibody (STAT3) or 0.18 μg/ml rabbit monoclonal Anti-pY641-STAT6 antibody (STAT6) in 1% Blocker-A for 1 hour at room temperature with shaking, then washed and probed with 25 ul per well of 1 ug/ml Sulfo-TAG Labeled Goat Anti-Rabbit Antibody (MSD) in 1% Blocker-A for 1 hour at room temperature with shaking. Assay plates were then washed and 150 μL of 1× Read Buffer-T (MSD) was added to each well prior to reading on an SQ120 MSD Plate Reader. Assay signal from each sample was subtracted by the signal from unstimulated control wells and normalized to DMSO control wells. IC50 values were calculated using Graph Pad Prism Dose-Response Nonlinear Regression with variable slope. For both pSTAT3 and pSTAT6 A=≤100 nM; B 100-1000 nM; C=>1000-3000 nM; D=>3 μM; and NT=Not Tested.
row,IC50,SMILES
1,100 to 1000 nM,"COCCOCC(=O)SCCOP(=O)(OCCSC(=O)COCCOC)C(F)(F)c1ccc2ccc(C(=O)N[C@H]3CCCC[C@H]4CC[C@@H](C(=O)N5C[C@@H](C#N)[C@H](c6cc[nH]c(=O)c6)C5)N4C3=O)cc2c1 (single isomer, unassigned) [Compound 1013]"

# Same assay, conditions: STAT6, PBMC, compound 3 hrs, then 1 ng/mL IL-4 for 10 min; Table 115
row,SMILES,IC50
1,"CCCOC(=O)[C@H](C)NP(=O)(Oc1ccccc1)[C@@H](F)c1ccc2sc(C(=O)N[C@H]3C[C@@H](C)C[C@H]4CC[C@@H](C(=O)N5C[C@@H](c6cccnc6)CC56CC6)N4C3=O)cc2c1 (stereo partly drawn) [Compound 353, propyl (((R)-fluoro(2-(((3S,6S,8R,9aR)-8-methyl-5-oxo-3-((R)-6-(pyridin-3-yl)-4-azaspiro[2.4]heptane-4-carbonyl)octahydro-1H-pyrrolo[1,2-a]azepin-6-yl)carbamoyl)benzo [b]thiophen-5-yl)methyl)(phenoxy)phosphoryl)-L-alaninate]",< 100 nM
2,"CCCOC(=O)[C@H](C)NP(=O)(Oc1ccccc1)C(F)c1ccc2sc(C(=O)N[C@H]3CCCC[C@H]4CC[C@@H](C(=O)N5CCC(c6cnn(C)c(=O)c6)C5)N4C3=O)cc2c1 (stereo partly drawn) [Compound 465, propyl ((fluoro(2-(((3S,6S,10aS)-3-(3-(1-methyl-6-oxo-1,6-dihydropyridazin-4-yl)pyrrolidine-1-carbonyl)-5-oxodecahydropyrrolo [1,2-a]azocin-6-yl)carbamoyl)benzo [b]thiophen-5-yl)methyl)(phenoxy)phosphoryl)-L-alaninate]",> 3000 nM
3,"CCCOC(=O)[C@H](C)NP(=O)(Oc1ccccc1)C(F)c1ccc2sc(C(=O)N[C@H]3CCCC[C@H]4CC[C@@H](C(=O)N5C(=O)N(c6ccn(C(C)C)c(=O)c6)C(=O)C56CC6)N4C3=O)cc2c1 (stereo partly drawn) [Compound 981, propyl ((fluoro(2-(((3S,6S,10aS)-3-(6-(1-isopropyl-2-oxo-1,2-dihydropyridin-4-yl)-5,7-dioxo-4,6-diazaspiro [2.4]heptane-4-carbonyl)-5-oxodecahydropyrrolo [1,2-a]azocin-6-yl)carbamoyl)benzo [b]thiophen-5-yl)methyl)(phenoxy)phosphoryl)-L-alaninate]",> 3000 nM
4,"CCCOC(=O)[C@H](C)NP(=O)(Oc1ccccc1)[C@H](F)c1ccc2ccc(C(=O)N[C@H]3CCCC[C@H]4CC[C@@H](C(=O)N5C[C@H](c6ccccc6)[C@@H](C#N)C56CC6)N4C3=O)cc2c1 (stereo partly drawn) [Compound 347, propyl (((S)-(7-(((3S,6S,10aS)-3-((6S,7R)-7-cyano-6-phenyl-4-azaspiro[2.4]heptane-4-carbonyl)-5-oxodecahydropyrrolo [1,2-a]azocin-6-yl)carbamoyl)naphthalen-2-yl)fluoromethyl) (phenoxy)phosphoryl)-L-alaninate]",< 100 nM
5,"C[C@H](NP(=O)(Oc1ccccc1)[C@@H](F)c1ccc2sc(C(=O)N[C@H]3CCCC[C@H]4CC[C@@H](C(=O)N5C[C@@H](c6cccnc6)CC56CC6)N4C3=O)cc2c1)C(=O)OCC1CCOCC1 (stereo partly drawn) [Compound 360, (tetrahydro-2H-pyran-4-yl)methyl (((R)-fluoro(2-(((3S,6S,10aS)-5-oxo-3-((R)-6-(pyridin-3-yl)-4-azaspiro[2.4]heptane-4-carbonyl)decahydropyrrolo[1,2-a]azocin-6-yl)carbamoyl)benzo [b]thiophen-5-yl)methyl)(phenoxy)phosphoryl)-L-alaninate]",< 100 nM
6,"CCCOC(=O)[C@H](C)NP(=O)(Oc1ccccc1)[C@@H](F)c1ccc2sc(C(=O)N[C@H]3CCCC[C@H]4CC[C@@H](C(=O)N5C(=O)N(c6cccnc6)C(=O)C56CC6)N4C3=O)cc2c1 (stereo partly drawn) [Compound 468, propyl (((R)-(2-(((3S,6S,10aS)-3-(5,7-dioxo-6-(pyridin-3-yl)-4,6-diazaspiro[2.4]heptane-4-carbonyl)-5-oxodecahydropyrrolo [1,2-a]azocin-6-yl)carbamoyl)benzo [b]thiophen-5-yl)fluoromethyl) (phenoxy)phosphoryl)-L-alaninate]",< 100 nM
7,"CCCOC(=O)[C@H](C)NP(=O)(Oc1ccccc1)[C@@H](F)c1ccc2sc(C(=O)N[C@H]3CCC[C@H]4CC[C@@H](C(=O)N5C[C@H](c6cncc(OC)c6)[C@@H](C#N)C56CC6)N4C3=O)cc2c1 (single isomer, unassigned) [Compound 369]",1000 to 3000 nM
8,"CCCOC(=O)[C@H](C)NP(=O)(Oc1ccccc1)C(F)c1ccc2ccc(C(=O)N[C@H]3CCCC[C@H]4CC[C@@H](C(=O)N5CC(c6ccn(C)c(=O)c6)CC56CC6)N4C3=O)cc2c1 (stereo partly drawn) [Compound 440, propyl ((fluoro(7-(((3S,6S,10aS)-3-(6-(1-methyl-2-oxo-1,2-dihydropyridin-4-yl)-4-azaspiro[2.4]heptane-4-carbonyl)-5-oxodecahydropyrrolo [1,2-a]azocin-6-yl)carbamoyl)naphthalen-2-yl)methyl)(phenoxy)phosphoryl)-L-alaninate]",< 100 nM
9,"CCCOC(=O)[C@H](C)NP(=O)(Oc1ccccc1)C(F)c1ccc2ccc(C(=O)N[C@H]3CCCC[C@H]4CC[C@@H](C(=O)N5CCC(F)(c6ccn(C)c(=O)c6)C5)N4C3=O)cc2c1 (stereo partly drawn) [Compound 451, propyl ((fluoro(7-(((3S,6S,10aS)-3-(3-fluoro-3-(1-methyl-2-oxo-1,2-dihydropyridin-4-yl)pyrrolidine-1-carbonyl)-5-oxodecahydropyrrolo [1,2-a]azocin-6-yl)carbamoyl)naphthalen-2-yl)methyl)(phenoxy)phosphoryl)-L-alaninate]",100 to 1000 nM
10,"CCCOC(=O)[C@H](C)NP(=O)(Oc1ccccc1)C(F)c1ccc2sc(C(=O)N[C@H]3CCCC[C@H]4CC[C@@H](C(=O)N5C[C@@H](C#N)[C@H](c6cccn(C)c6=O)C5)N4C3=O)cc2c1 (relative stereo) [Compound 299, propyl (((2-(((3S,6S,10aS)-3-(rel-(trans)-3-cyano-4-(1-methyl-2-oxo-1,2-dihydropyridin-3-yl)pyrrolidine-1-carbonyl)-5-oxodecahydropyrrolo [1,2-a]azocin-6-yl)carbamoyl)benzo [b]thiophen-5-yl)fluoromethyl) (phenoxy)phosphoryl)-L-alaninate]",100 to 1000 nM
11,"COCCOC(=O)[C@H](COC)NP(=O)(Oc1ccccc1)[C@H](F)c1ccc2sc(C(=O)N[C@H]3CCC[C@H]4CC[C@@H](C(=O)N5C[C@H](c6ccccc6)[C@@H](C#N)C56CC6)N4C3=O)cc2c1 (stereo partly drawn) [Compound 348, 2-methoxyethyl N-(((S)-(2-(((3S,6S,9aS)-3-((6S,7R)-7-cyano-6-phenyl-4-azaspiro[2.4]heptane-4-carbonyl)-5-oxooctahydro-1H-pyrrolo[1,2-a]azepin-6-yl)carbamoyl)benzo [b]thiophen-5-yl)fluoromethyl) (phenoxy)phosphoryl)-O-methyl-L-serinate]",< 100 nM
12,"CCCOC(=O)[C@H](C)NP(=O)(Cc1ccc2sc(C(=O)N[C@H]3CCCC[C@H]4CC[C@@H](C(=O)N5C[C@@H](c6cccnc6)CC56CC6)N4C3=O)cc2c1)Oc1ccccc1 (stereo partly drawn) [Compound 476, propyl (((2-(((3S,6S,10aS)-5-oxo-3-((R)-6-(pyridin-3-yl)-4-azaspiro[2.4]heptane-4-carbonyl)decahydropyrrolo[1,2-a]azocin-6-yl)carbamoyl)benzo [b]thiophen-5-yl)methyl)(phenoxy)phosphoryl)-L-alaninate]",< 100 nM
